Reference: ChEMBL document CHEMBL3608274, “Design and synthesis of constrained analogs of LCRF-0004 as potent RON tyrosine kinase inhibitors” (Bioorg Med Chem Lett, 2015)

Legend:
[1] = molecular target: Hepatocyte growth factor receptor (Homo sapiens, UniProt P08581); assay: Inhibition of human c-Met
[2] = molecular target: Macrophage-stimulating protein receptor (Homo sapiens, UniProt Q04912); assay: Inhibition of human RON
Chain of Macrophage-stimulating protein receptor (Q04912 25-304 limits assumed): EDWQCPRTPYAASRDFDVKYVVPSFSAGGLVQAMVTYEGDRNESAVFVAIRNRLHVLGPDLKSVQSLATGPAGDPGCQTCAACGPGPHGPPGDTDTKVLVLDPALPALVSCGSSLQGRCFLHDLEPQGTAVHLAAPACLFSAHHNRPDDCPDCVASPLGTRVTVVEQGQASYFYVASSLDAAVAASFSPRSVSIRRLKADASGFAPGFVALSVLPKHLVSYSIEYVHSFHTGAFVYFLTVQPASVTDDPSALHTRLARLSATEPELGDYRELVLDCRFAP
Chain of Macrophage-stimulating protein receptor (Q04912 310-1400 limits assumed): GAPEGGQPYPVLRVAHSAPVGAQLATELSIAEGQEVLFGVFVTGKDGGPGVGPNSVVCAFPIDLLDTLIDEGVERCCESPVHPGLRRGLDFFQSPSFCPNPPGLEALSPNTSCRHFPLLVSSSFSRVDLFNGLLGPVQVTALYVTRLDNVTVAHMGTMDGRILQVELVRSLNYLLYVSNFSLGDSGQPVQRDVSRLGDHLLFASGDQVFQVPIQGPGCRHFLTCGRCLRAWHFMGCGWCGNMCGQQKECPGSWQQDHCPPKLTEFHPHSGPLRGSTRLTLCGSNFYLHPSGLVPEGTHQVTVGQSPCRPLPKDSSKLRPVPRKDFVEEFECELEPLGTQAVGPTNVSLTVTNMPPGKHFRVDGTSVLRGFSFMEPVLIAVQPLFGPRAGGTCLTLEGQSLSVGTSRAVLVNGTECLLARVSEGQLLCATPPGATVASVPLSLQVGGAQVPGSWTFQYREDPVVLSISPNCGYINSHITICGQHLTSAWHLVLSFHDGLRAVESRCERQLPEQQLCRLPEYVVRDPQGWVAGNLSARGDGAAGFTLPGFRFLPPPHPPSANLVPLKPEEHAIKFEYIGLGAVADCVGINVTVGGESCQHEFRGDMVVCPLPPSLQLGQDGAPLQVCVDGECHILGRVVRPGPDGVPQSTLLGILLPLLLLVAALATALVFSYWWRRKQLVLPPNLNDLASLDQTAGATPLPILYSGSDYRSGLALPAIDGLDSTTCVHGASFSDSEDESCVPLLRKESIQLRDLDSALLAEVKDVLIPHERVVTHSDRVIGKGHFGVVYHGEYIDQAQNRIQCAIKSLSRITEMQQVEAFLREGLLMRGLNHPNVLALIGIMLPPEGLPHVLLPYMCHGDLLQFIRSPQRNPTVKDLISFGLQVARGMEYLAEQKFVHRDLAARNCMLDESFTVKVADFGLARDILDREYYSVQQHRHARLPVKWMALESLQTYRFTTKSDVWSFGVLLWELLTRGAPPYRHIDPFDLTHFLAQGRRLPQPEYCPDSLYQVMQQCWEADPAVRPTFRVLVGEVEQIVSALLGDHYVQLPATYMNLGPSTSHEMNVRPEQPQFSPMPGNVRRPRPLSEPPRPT

Chain of Hepatocyte growth factor receptor (P08581 whole entry): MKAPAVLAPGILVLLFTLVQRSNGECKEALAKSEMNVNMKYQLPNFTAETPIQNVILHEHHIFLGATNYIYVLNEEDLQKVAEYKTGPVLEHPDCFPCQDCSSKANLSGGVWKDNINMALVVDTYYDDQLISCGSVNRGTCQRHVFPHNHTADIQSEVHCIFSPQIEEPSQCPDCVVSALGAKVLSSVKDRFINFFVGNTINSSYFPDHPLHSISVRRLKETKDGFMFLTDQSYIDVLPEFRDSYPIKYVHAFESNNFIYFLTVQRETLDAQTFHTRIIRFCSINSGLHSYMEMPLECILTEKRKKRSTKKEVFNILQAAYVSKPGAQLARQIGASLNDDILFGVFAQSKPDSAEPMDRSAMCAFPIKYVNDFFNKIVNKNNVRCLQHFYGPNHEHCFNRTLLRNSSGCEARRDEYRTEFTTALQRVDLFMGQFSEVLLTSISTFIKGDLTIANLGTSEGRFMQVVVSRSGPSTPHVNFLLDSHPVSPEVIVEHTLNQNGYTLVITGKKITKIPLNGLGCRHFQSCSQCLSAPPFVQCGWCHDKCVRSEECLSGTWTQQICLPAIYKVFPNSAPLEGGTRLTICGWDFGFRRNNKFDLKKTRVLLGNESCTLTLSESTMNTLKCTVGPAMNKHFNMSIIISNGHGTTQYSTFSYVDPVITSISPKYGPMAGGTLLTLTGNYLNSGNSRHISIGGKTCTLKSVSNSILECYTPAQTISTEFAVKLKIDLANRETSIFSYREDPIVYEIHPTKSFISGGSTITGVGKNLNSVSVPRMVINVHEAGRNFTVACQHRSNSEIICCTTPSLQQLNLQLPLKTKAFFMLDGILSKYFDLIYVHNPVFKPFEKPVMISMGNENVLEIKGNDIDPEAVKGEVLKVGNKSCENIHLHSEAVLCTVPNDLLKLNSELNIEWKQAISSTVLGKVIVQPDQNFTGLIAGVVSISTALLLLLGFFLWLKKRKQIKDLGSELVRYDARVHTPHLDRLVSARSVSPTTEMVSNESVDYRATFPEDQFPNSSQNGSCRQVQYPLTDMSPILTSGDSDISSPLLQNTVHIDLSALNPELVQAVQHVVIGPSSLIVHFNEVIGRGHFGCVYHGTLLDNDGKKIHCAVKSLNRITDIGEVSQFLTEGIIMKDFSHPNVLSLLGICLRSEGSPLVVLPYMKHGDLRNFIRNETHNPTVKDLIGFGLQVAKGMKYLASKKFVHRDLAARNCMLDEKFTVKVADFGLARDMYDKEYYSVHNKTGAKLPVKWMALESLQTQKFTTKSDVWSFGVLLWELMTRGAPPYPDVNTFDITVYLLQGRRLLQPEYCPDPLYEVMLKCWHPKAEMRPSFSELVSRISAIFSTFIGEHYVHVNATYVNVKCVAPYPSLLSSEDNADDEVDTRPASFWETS

IC50 [1]: 12 nM
IC50 [2]: 10 nM
Compound: Cn1cnc(-c2cc3nccc(Oc4ccc(NC(=O)c5cnn(-c6ccccc6)c5C(F)(F)F)cc4F)c3s2)c1
